Laboratory results from ChEMBL document CHEMBL1201862, “PubChem BioAssay data set” (2004).
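All cell lines were grown in 96-well plates and treated with compound for 48 hours. GI50 marks 50% less growth.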 Calls of active or inactive are those of the source. No stated cut-off is given here; in the data, active = GI50 up to about 1.1 µM and inactive = higher.

Key:
Assay in all cases: inhibition of tumour cell growth, NCI panel, 48 h
[1] = tested on: DU-145
[2] = tested on: PC-3
[3] = tested on: K562
[4] = tested on: SK-MEL-28
[5] = tested on: HOP-92
[6] = tested on: NCI-H460
[7] = tested on: MDA-MB-435
[8] = tested on: Malme-3M
[9] = tested on: COLO 205
[10] = tested on: MOLT-4
[11] = tested on: HCT-15
[12] = tested on: MDA-N
[13] = tested on: SW-620
[14] = tested on: CCRF-CEM
[15] = tested on: MDA-MB-231

Compound	GI50 [1]	GI50 [2]	GI50 [3]	GI50 [4]	GI50 [5]	GI50 [6]	GI50 [7]	GI50 [8]	GI50 [9]	GI50 [10]	GI50 [11] [µM]	GI50 [12]	GI50 [13]	GI50 [14]	GI50 [15]
CN(C)CCCNC(=O)c1cc(NC(=O)CCCn2c3ccccc3c3ccccc32)cn1C	> 100 µM (inactive)	20.7 µM (inactive)	31.6 µM (inactive)	49.7 µM (inactive)	2.13 µM (inactive)	28.8 µM (inactive)	24.3 µM (inactive)	17.2 µM (inactive)	21.9 µM (inactive)	11.4 µM (inactive)	45.7	35.1 µM (inactive)	> 100 µM (inactive)	29.6 µM (inactive)	21 µM (inactive)
CCOC(=O)N1CCN(Cc2cc(=O)n3ccc(C)cc3n2)CC1	> 100 µM (inactive)	> 100 µM (inactive)	> 100 µM (inactive)	> 100 µM (inactive)	> 100 µM (inactive)	> 100 µM (inactive)	> 100 µM (inactive)	> 100 µM (inactive)	> 100 µM (inactive)	> 100 µM (inactive)	> 100	> 100 µM (inactive)	> 100 µM (inactive)	> 100 µM (inactive)	> 100 µM (inactive)
Oc1c(N2CCCCC2)cc(-c2cc(N3CCCCC3)c(O)c3ccccc23)c2ccccc12	23.4 µM (inactive)	31.3 µM (inactive)	71.9 µM (inactive)	19.9 µM (inactive)	23.4 µM (inactive)	43 µM (inactive)	4.24 µM (inactive)	12 µM (inactive)	26.2 µM (inactive)	22.9 µM (inactive)	35.2	17 µM (inactive)	29.3 µM (inactive)	30.2 µM (inactive)	39.8 µM (inactive)
COc1ncc(C=C(C#N)C#N)c(OC)n1	52.5 µM (inactive)	39.2 µM (inactive)	38.6 µM (inactive)	44.8 µM (inactive)	> 100 µM (inactive)	41 µM (inactive)	26 µM (inactive)	35.2 µM (inactive)	36 µM (inactive)	33.3 µM (inactive)	29.9	26.9 µM (inactive)	26.2 µM (inactive)	7.48 µM (inactive)	41.5 µM (inactive)
COc1ccc(OC)c2c1C=CC(Br)=CC2	0.975 µM (active)	0.352 µM (active)	0.173 µM (active)	0.35 µM (active)	0.148 µM (active)	0.211 µM (active)	0.239 µM (active)	0.145 µM (active)	0.314 µM (active)	0.144 µM (active)	0.201	0.229 µM (active)	0.234 µM (active)	0.39 µM (active)	0.285 µM (active)
O=C(O)c1cccc(/N=N/c2c(S(=O)(=O)O)ccc3c2C(=O)c2ccccc2C3=O)c1O	> 100 µM (inactive)	> 100 µM (inactive)	> 100 µM (inactive)	> 100 µM (inactive)	> 100 µM (inactive)	> 100 µM (inactive)	> 100 µM (inactive)	54.6 µM (inactive)	> 100 µM (inactive)	> 100 µM (inactive)	> 100	> 100 µM (inactive)	> 100 µM (inactive)	> 100 µM (inactive)	> 100 µM (inactive)
CCOC(=O)CNc1nc(=O)c2c(=O)oc(Cl)cc2o1	29 µM (inactive)	13.2 µM (inactive)	6.25 µM (inactive)	22.9 µM (inactive)	3.69 µM (inactive)	16.6 µM (inactive)	15.7 µM (inactive)	11.4 µM (inactive)	16.7 µM (inactive)	12.6 µM (inactive)	10	14.2 µM (inactive)	8.81 µM (inactive)	5.82 µM (inactive)	21.6 µM (inactive)
CCOC(=O)CSc1nc(N)c2c(-c3ccccc3)c3c(nc2n1)CCCC3	> 100 µM (inactive)	> 100 µM (inactive)	> 100 µM (inactive)	> 100 µM (inactive)	> 100 µM (inactive)	> 100 µM (inactive)	> 100 µM (inactive)	> 100 µM (inactive)	> 100 µM (inactive)	> 100 µM (inactive)	> 100	> 100 µM (inactive)	> 100 µM (inactive)	> 100 µM (inactive)	> 100 µM (inactive)
CN1CCCN2CCN(C)CCN(CC1)CC2	> 100 µM (inactive)	> 100 µM (inactive)	> 100 µM (inactive)	> 100 µM (inactive)	> 100 µM (inactive)	> 100 µM (inactive)	> 100 µM (inactive)	> 100 µM (inactive)	> 100 µM (inactive)	> 100 µM (inactive)	> 100	> 100 µM (inactive)	> 100 µM (inactive)	> 100 µM (inactive)	> 100 µM (inactive)
O=C1C=C(OCCCCl)C(=O)c2c(O)ccc(O)c21	0.303 µM (active)	1.93 µM (inactive)	1.26 µM (inactive)	0.843 µM (active)	1.42 µM (inactive)	1.21 µM (inactive)	0.206 µM (active)	0.167 µM (active)	0.245 µM (active)	2.11 µM (inactive)	0.422	0.184 µM (active)	0.277 µM (active)	0.661 µM (active)	1.74 µM (inactive)
CCN(CC)c1c(C(C)(C)C)c(=O)n2ccsc2c1OC(C)=O	19.9 µM (inactive)	11.2 µM (inactive)	17.6 µM (inactive)	17.1 µM (inactive)	17.4 µM (inactive)	16.5 µM (inactive)	18 µM (inactive)	12.5 µM (inactive)	16.9 µM (inactive)	17.8 µM (inactive)	16.5	18.6 µM (inactive)	16.9 µM (inactive)	49 µM (inactive)	17.8 µM (inactive)
C/C(Cl)=N/OC(=O)Nc1ccc(S(N)(=O)=O)c(C)c1	16.6 µM (inactive)	18.3 µM (inactive)	1.34 µM (inactive)	13.6 µM (inactive)	2 µM (inactive)	39.9 µM (inactive)	15.1 µM (inactive)	2.08 µM (inactive)	2.17 µM (inactive)	1.5 µM (inactive)	2.02	11.7 µM (inactive)	2.38 µM (inactive)	1.07 µM (active)	8.26 µM (inactive)
Cc1nn(C(=O)c2ccc(Cl)cc2)c2c1C(c1cccc([N+](=O)[O-])c1)SC(=N)N2 (stereo not given)	> 10 µM (inactive)	> 10 µM (inactive)	> 10 µM (inactive)	> 10 µM (inactive)	> 10 µM (inactive)	> 10 µM (inactive)	> 10 µM (inactive)	> 10 µM (inactive)	> 10 µM (inactive)	> 10 µM (inactive)	2.56	> 10 µM (inactive)	> 10 µM (inactive)	> 10 µM (inactive)	> 10 µM (inactive)
Cc1cn(C2CC(O)C(COP(=O)(O)OC3CC(n4c[n+]([BH2-]C#N)c5c(=O)[nH]c(N)nc54)OC3CO)O2)c(=O)[nH]c1=O (stereo not given)	> 100 µM (inactive)	> 100 µM (inactive)	> 100 µM (inactive)	> 100 µM (inactive)	> 100 µM (inactive)	> 100 µM (inactive)	> 100 µM (inactive)	> 100 µM (inactive)	> 100 µM (inactive)	> 100 µM (inactive)	> 100	> 100 µM (inactive)	> 100 µM (inactive)	> 100 µM (inactive)	> 100 µM (inactive)
